Test results from patent US9840467B2, “Arylhydrazides containing a 2-pyridone moiety as selective antibacterial agents” (ABAC THERAPEUTICS, S.L., priority 2014, dated 2017).
In brackets after ≈: the same amount, converted by molar mass. Like-named read-outs stand apart in the source and are kept apart here.

Legend:
A. baumannii = assay: MIC, CLSI microtiter dilution, A. baumannii; format: cell-based, Acinetobacter baumannii
Description: (§1) The products of the present invention were tested for their activity against A. baumannii as well as against the following bacteria: Staphylococcus aureus (S. aureus), Streptococcus pneumoniae (S. pneumoniae), Enterococcus faecium (E. faecium), Pseudomonas aeruginosa (P. aeruginosa), Klebsiella pneumoniae (K. pneumoniae.), Enterobacter aerogenes (E. aerogenes) and Escherichia coli (E. coli).
(§2) Minimal inhibitory concentrations (MICs) were determined using a standard microtiter dilution method, according to the Clinical and Laboratory Standards Institute (CLSI) procedures, in particular according to M07-A9: “Methods for Dilution Antimicrobial Susceptibility Tests for Bacteria That Grow Aerobically; Approved Standard—Ninth Edition”.
(§3) Briefly, compounds were dissolved with dimethyl sulfoxide (DMSO) at 12.8 mg/mL. Serial two-fold dilutions of compounds were performed in DMSO and 1 μl of each dilution were transferred into microtiter culture plates, followed by 100 μl of inoculated culture media to give a final microorganism concentration of 5×10^5 colony-forming units/mL. Plates were incubated at 37° C. for 24 hours and MICs determined as the lowest compound concentration that inhibited growth. Media used in determinations were Cation adjusted Mueller-Hinton Broth for all the microorganisms except for S. pneumoniae and E. faecium whose culture media were supplemented with 2.5% of lysed horse blood. Incubations were performed at air atmosphere except S. pneumoniae cultures that were incubated with 5% CO2 atmosphere.

S. aureus = assay: MIC, CLSI microtiter dilution, S. aureus; format: cell-based, Staphylococcus aureus
Description: as §1, §2, §3

S. pneumoniae = assay: MIC, CLSI microtiter dilution, S. pneumoniae; format: cell-based, Streptococcus pneumoniae
Description: as §1, §2, §3

E. faecium = assay: MIC, CLSI microtiter dilution, E. faecium; format: cell-based, Enterococcus faecium
Description: as §1, §2, §3

P. aeruginosa = assay: MIC, CLSI microtiter dilution, P. aeruginosa; format: cell-based, Pseudomonas aeruginosa
Description: as §1, §2, §3

K. pneumoniae = assay: MIC, CLSI microtiter dilution, K. pneumoniae; format: cell-based, Klebsiella pneumoniae
Description: as §1, §2, §3

E. aerogenes = assay: MIC, CLSI microtiter dilution, E. aerogenes; format: cell-based, Enterobacter aerogenes
Description: as §1, §2, §3

E. coli = assay: MIC, CLSI microtiter dilution, E. coli; format: cell-based, Escherichia coli
Description: as §1, §2, §3

[1] = Acinetobacter baumannii, A. baumannii, 37° C., 24 hours, Cation adjusted Mueller-Hinton Broth, read-out: MIC
[2] = Staphylococcus aureus, S. aureus, 37° C., 24 hours, Cation adjusted Mueller-Hinton Broth, read-out: MIC
[3] = Streptococcus pneumoniae, S. pneumoniae, 37° C., 24 hours, 2.5% lysed horse blood, 5% CO2, read-out: MIC
[4] = Enterococcus faecium, E. faecium, 37° C., 24 hours, 2.5% lysed horse blood, read-out: MIC
[5] = Pseudomonas aeruginosa, P. aeruginosa, 37° C., 24 hours, Cation adjusted Mueller-Hinton Broth, read-out: MIC
[6] = Klebsiella pneumoniae, K. pneumoniae, 37° C., 24 hours, Cation adjusted Mueller-Hinton Broth, read-out: MIC
[7] = Klebsiella aerogenes, E. aerogenes, 37° C., 24 hours, Cation adjusted Mueller-Hinton Broth, read-out: MIC
[8] = Escherichia coli, E. coli, 37° C., 24 hours, Cation adjusted Mueller-Hinton Broth, read-out: MIC

Row | Compound | MIC (A. baumannii; [1]) | MIC (S. aureus; [2]) | MIC (S. pneumoniae; [3]) | MIC (E. faecium; [4]) | MIC (P. aeruginosa; [5]) | MIC (K. pneumoniae; [6]) | MIC (E. aerogenes; [7]) | MIC (E. coli; [8]) | MIC (A. baumannii; Acinetobacter baumannii, 24 h) | MIC (S. aureus; Staphylococcus aureus, 24 h) | MIC (S. pneumoniae; Streptococcus pneumoniae, 24 h) | MIC (E. faecium; Enterococcus faecium, 24 h) | MIC (P. aeruginosa; Pseudomonas aeruginosa, 24 h) | MIC (K. pneumoniae; Klebsiella pneumoniae, 24 h) | MIC (E. aerogenes; Klebsiella aerogenes, 24 h) | MIC (E. coli; Escherichia coli, 24 h) | further results
1 | Cn1cc(C(=O)NNc2ccc(F)cc2)ccc1=O [Ex. 19, 1-Methyl-6-oxo-1,6-dihydropyridine-3-carboxylic acid N′-(4-fluorophenyl)-hydrazide] | 0.25 µg/mL (≈ 0.957 µM) | > 128 µg/mL | > 128 µg/mL | > 128 µg/mL | > 128 µg/mL | > 128 µg/mL | > 128 µg/mL | > 128 µg/mL | – | – | – | – | – | – | – | – | –
2 | 1-Cyclopropylmethyl-6-oxo-1,6-dihydro-pyridine-2-carboxylic acid N′-(4-fluorophenyl)-hydrazide [Ex. 6] | – | – | – | – | – | – | – | – | – | – | – | – | – | – | – | – | MIC (A. baumannii; A. baumannii, 37° C., 24 hours, Cation adjusted Mueller-Hinton Broth): <0.25 µg/mL; MIC (S. aureus; S. aureus, 37° C., 24 hours, Cation adjusted Mueller-Hinton Broth): >128 µg/mL; MIC (S. pneumoniae; S. pneumoniae, 37° C., 24 hours, 2.5% lysed horse blood, 5% CO2): >128 µg/mL; MIC (E. faecium; E. faecium, 37° C., 24 hours, 2.5% lysed horse blood): >128 µg/mL; MIC (P. aeruginosa; P. aeruginosa, 37° C., 24 hours, Cation adjusted Mueller-Hinton Broth): >128 µg/mL; MIC (K. pneumoniae; K. pneumoniae, 37° C., 24 hours, Cation adjusted Mueller-Hinton Broth): >128 µg/mL; MIC (E. aerogenes; E. aerogenes, 37° C., 24 hours, Cation adjusted Mueller-Hinton Broth): >128 µg/mL; MIC (E. coli; E. coli, 37° C., 24 hours, Cation adjusted Mueller-Hinton Broth): >128 µg/mL
3 | COc1cc(C(=O)NNc2ccc(F)cc2)n(C)c(=O)c1 [Ex. 21, 4-Methoxy-1-methyl-6-oxo-1,6-dihydropyridine-2-carboxylic acid N′-(4-fluorophenyl)-hydrazide] | 0.25 µg/mL (≈ 0.858 µM) | > 128 µg/mL | > 128 µg/mL | > 128 µg/mL | > 128 µg/mL | > 128 µg/mL | > 128 µg/mL | > 128 µg/mL | – | – | – | – | – | – | – | – | –
4 | Cn1c(C(=O)NNc2ccc(F)cc2F)cccc1=O [Ex. 12, 1-Methyl-6-oxo-1,6-dihydropyridine-2-carboxylic acid N′-(2,4-difluorophenyl)-hydrazide] | – | – | – | – | – | – | – | – | 0.25 µg/mL (≈ 0.895 µM) | > 128 µg/mL | > 128 µg/mL | > 128 µg/mL | > 128 µg/mL | > 128 µg/mL | > 128 µg/mL | > 128 µg/mL | –
5 | Cn1ccc(C(=O)NNc2ccc(F)cc2)cc1=O [Ex. 18, 1-Methyl-2-oxo-1,2-dihydropyridine-4-carboxylic acid N′-(4-fluorophenyl)-hydrazide] | 0.25 µg/mL (≈ 0.957 µM) | > 128 µg/mL | > 128 µg/mL | > 128 µg/mL | > 128 µg/mL | > 128 µg/mL | > 128 µg/mL | > 128 µg/mL | – | – | – | – | – | – | – | – | –
6 | Cn1c(C(=O)NNc2ccc(F)cc2)cccc1=O [Ex. 1, 1-Methyl-6-oxo-1,6-dihydro-pyridine-2-carboxylic acid N′-(4-fluoro-phenyl)-hydrazide] | 0.5 µg/mL (≈ 1.91 µM) | > 128 µg/mL | > 128 µg/mL | > 128 µg/mL | > 128 µg/mL | > 128 µg/mL | > 128 µg/mL | 64 µg/mL (≈ 245 µM) | – | – | – | – | – | – | – | – | –
7 | O=C(NNc1ccc(F)cc1)c1cccc(=O)n1C(F)F [Ex. 4, 1-Difluoromethyl-6-oxo-1,6-dihydro-pyridine-2-carboxylic acid N′-(4-fluorophenyl)-hydrazide] | 1 µg/mL (≈ 3.36 µM) | > 128 µg/mL | > 128 µg/mL | > 128 µg/mL | > 128 µg/mL | > 128 µg/mL | > 128 µg/mL | > 128 µg/mL | – | – | – | – | – | – | – | – | –
8 | Cc1ccc(NNC(=O)c2cccc(=O)n2C)cc1 [Ex. 11, 1-Methyl-6-oxo-1,6-dihydropyridine-2-carboxylic acid N′-(4-methylphenyl)-hydrazide] | – | – | – | – | – | – | – | – | 0.5 µg/mL (≈ 1.94 µM) | > 128 µg/mL | > 128 µg/mL | > 128 µg/mL | > 128 µg/mL | > 128 µg/mL | > 128 µg/mL | > 128 µg/mL | –
9 | O=C(NNc1ccc(F)cc1)c1cccc(=O)n1CC(F)(F)F [Ex. 8, 6-Oxo-1-(2,2,2-trifluoroethyl)-1,6-dihydropyridine-2-carboxylic acid N′-(4-fluorophenyl)-hydrazide] | – | – | – | – | – | – | – | – | 0.25 µg/mL (≈ 0.759 µM) | > 128 µg/mL | > 128 µg/mL | > 128 µg/mL | > 128 µg/mL | > 128 µg/mL | > 128 µg/mL | > 128 µg/mL | –
10 | NC(=O)Cn1c(C(=O)NNc2ccc(F)cc2)cccc1=O [Ex. 15, 1-(2-Amino-2-oxoethyl)-6-oxo-1,6-dihydropyridine-2-carboxylic acid N′-(4-fluorophenyl)-hydrazide] | – | – | – | – | – | – | – | – | 0.5 µg/mL (≈ 1.64 µM) | > 128 µg/mL | > 128 µg/mL | > 128 µg/mL | > 128 µg/mL | > 128 µg/mL | > 128 µg/mL | > 128 µg/mL | –
11 | O=C(NNc1ccc(F)cc1)c1cccc(=O)n1Cc1ccccc1 [Ex. 5, 1-Benzyl-6-oxo-1,6-dihydro-pyridine-2-carboxylic acid N′-(4-fluorophenyl)-hydrazide] | 0.25 µg/mL (≈ 0.741 µM) | > 128 µg/mL | > 128 µg/mL | > 128 µg/mL | > 128 µg/mL | > 128 µg/mL | > 128 µg/mL | > 128 µg/mL | – | – | – | – | – | – | – | – | –
12 | CCn1c(C(=O)NNc2ccc(F)cc2)cccc1=O [Ex. 2, 1-Ethyl-6-oxo-1,6-dihydro-pyridine-2-carboxylic acid N′-(4-fluoro-phenyl)-hydrazide] | – | – | – | – | – | – | – | – | 1 µg/mL (≈ 3.63 µM) | > 128 µg/mL | > 128 µg/mL | > 128 µg/mL | > 128 µg/mL | > 128 µg/mL | > 128 µg/mL | > 128 µg/mL | –
13 | Cn1c(C(=O)NNc2ccc(Cl)cc2)cccc1=O [Ex. 10, 1-Methyl-6-oxo-1,6-dihydropyridine-2-carboxylic acid N′-(4-chlorophenyl)-hydrazide] | – | – | – | – | – | – | – | – | 0.25 µg/mL (≈ 0.9 µM) | > 128 µg/mL | > 128 µg/mL | > 128 µg/mL | > 128 µg/mL | > 128 µg/mL | > 128 µg/mL | > 128 µg/mL | –
14 | Cn1cccc(C(=O)NNc2ccc(F)cc2)c1=O [Ex. 17, 1-Methyl-2-oxo-1,2-dihydropyridine-3-carboxylic acid N′-(4-fluorophenyl)-hydrazide] | – | – | – | – | – | – | – | – | 0.5 µg/mL (≈ 1.91 µM) | > 128 µg/mL | > 128 µg/mL | > 128 µg/mL | > 128 µg/mL | > 128 µg/mL | > 128 µg/mL | > 128 µg/mL | –
15 | COc1ccc(NNC(=O)c2cccc(=O)n2C)cc1 [Ex. 9, 1-Methyl-6-oxo-1,6-dihydropyridine-2-carboxylic acid N′-(4-methoxyphenyl)-hydrazide] | – | – | – | – | – | – | – | – | 0.25 µg/mL (≈ 0.915 µM) | > 128 µg/mL | > 128 µg/mL | > 128 µg/mL | > 128 µg/mL | > 128 µg/mL | > 128 µg/mL | > 128 µg/mL | –
16 | CN(C)C(=O)Cn1c(C(=O)NNc2ccc(F)cc2)cccc1=O [Ex. 14, 1-(2-(Dimethylamino)-2-oxoethyl)-6-oxo-1,6-dihydropyridine-2-carboxylic acid N′-(4-fluorophenyl)-hydrazide] | – | – | – | – | – | – | – | – | 0.25 µg/mL (≈ 0.752 µM) | > 128 µg/mL | > 128 µg/mL | > 128 µg/mL | > 128 µg/mL | > 128 µg/mL | > 128 µg/mL | > 128 µg/mL | –
17 | COCCn1c(C(=O)NNc2ccc(F)cc2)cccc1=O [Ex. 3, 1-(2-methoxyethyl)-6-oxo-1,6-dihydro-pyridine-2-carboxylic acid N′-(4-fluorophenyl)-hydrazide] | – | – | – | – | – | – | – | – | < 0.25 µg/mL | > 128 µg/mL | > 128 µg/mL | > 128 µg/mL | > 128 µg/mL | > 128 µg/mL | > 128 µg/mL | > 128 µg/mL | –
18 | CN(NC(=O)c1cccc(=O)n1C)c1ccc(F)cc1 [Ex. 20, 1-Methyl-6-oxo-1,6-dihydropyridine-2-carboxylic acid N′-(4-fluorophenyl)-N′-methyl-hydrazide] | – | – | – | – | – | – | – | – | 64 µg/mL (≈ 232 µM) | > 128 µg/mL | > 128 µg/mL | > 128 µg/mL | > 128 µg/mL | > 128 µg/mL | > 128 µg/mL | > 128 µg/mL | –
